These results are taken from US20240327372A1, “PREPARATION OF PHENE[…] […] STEREOISOMERS THEREOF AND PRECURSORS THEREOF” (priority 2022, published 2024).

A word on the pIC50: it is the IC50 on a negative log10 scale, so that one unit is a factor of ten. High values mean a small IC50, low ones a large IC50. As a reminder, the pKi is the negative decadic logarithm of the Ki, by convention in mol/L.

Test [1] deals with dopamine transporter (DAT) (Rattus norvegicus (Rat), UniProt P23977). Description: Competition radioligand binding, [3H]WIN35428, rat brain membranes. The settings on record: for pIC50 / pKi: DA transporter; for pKi: Cheng-Prusoff. The text has this:
Rat brain (Sprague Dawley, 200-250 g) synaptosomes were isolated from midbrain and hindbrain for serotonin transporter assays, striatum for dopamine transporter assays, and hippocampus plus overlying occipital cortex for norepinephrine transporter assays. Radioligands used were: [^3H]Citalopram 81.4 Ci/mmol (PerkinElmer NET1039250UC; Lot No. 2960876). [^3H]WIN35428 82.8 Ci/mmol (PerkinElmer NET1033250UC; Lot No. 2891473). [^3H]Nisoxetine 79.2 Ci/mmol (PerkinElmer NET1084250UC; Lot No. 2970324). Non-specific compounds used were: Citalopram (Tocris Bioscience 1427). JHW007 (Tocris Bioscience 4351). Nomifensine (Abcam ab146004). Test Compounds for the study were: racemic methylone HCl; (R)-methylone HCl; (S)-methylone HCl.
For membrane preparations, rat brains were dissected, tissue was added to ice-cold lysis buffer (50 mM Tris HCl; 5 mM MgCl2; 5 mM EDTA; protease inhibitor cocktail) and homogenized. The homogenate was centrifuged at 100×g for 2 minutes and the supernatant divided into polypropylene Eppendorf tubes. The supernatants were centrifuged at 17,000×g for 10 minutes at 4° C. to re-pellet the cell lysate. The pellet was resuspended in fresh wash buffer (50 mM Tris-HCl; 5 mM MgCl2; 5 mM EDTA) and centrifuged a third time at 17,000×g for 10 minutes at 4° C. The pellet was resuspended in wash buffer containing 10% sucrose as a cryoprotectant, divided into aliquots (0.3 mL) and stored at −80° C. A sample of the homogenate was analyzed for protein content using the MERCK® BCA assay. On the day of the assay, the membrane preparation was thawed and the pellet resuspended in final assay buffer.
Competition binding assays were carried out in 96-well polypropylene plates in a final volume of 250 μL per well. To each well was added 150 μL membranes, 50 μL of test compound, non-specific compound or buffer, and 50 μL radioligand solution in buffer. The plate was incubated at 30° C. for 90 minutes with gentle agitation. The incubation was stopped by vacuum filtration onto presoaked (wash buffer with PEI) GF/C filters using a 96-well FILTERMATE™ harvester, followed by 5 washes with ice-cold wash buffer. Filters were then dried under a warm air stream, sealed in polyethylene, scintillation cocktail added, and the radioactivity counted in a WALLAC® TriLux 1450 MicroBeta counter. For each concentration of drug, non-specific binding was subtracted from total binding to give specific binding. Data was fitted using the non-linear curve fitting routines in PRISM® (Graphpad Software Inc) to determine IC50. Ki was subsequently calculated using the ChengPrusoff equation.

For another test, the target named is SERT (Rattus norvegicus (Rat), UniProt P31652). The test can be described thus: [3H]5-HT uptake inhibition in rat brain synaptosomes. The format is biochemical. As for the experimental part:
Materials used were: Neurotransmitters [3H]5-HT (PerkinElmer, NET498001MC) [^3H]Dopamine (PerkinElmer, NET673250UC) [^3H]Norepinephrine (PerkinElmer, NET377250UC); Test Compounds Racemic methylone HCl (Merck, M-140); (R)-methylone HCl (Pisgah Labs); (S)-methylone HCl (Pisgah Labs); Reference Compounds Citalopram (Tocris Bioscience 1427). JHW007 (Tocris Bioscience 4351). Nomifensine (Abcam ab146004).
Synaptosomes were prepared from Sprague Dawley (200-250 g) rat brain regions (hippocampus for NE, striatum for DA and midbrain for 5-HT) using standard protocols. Tissues were dissected, added to sucrose buffer (0.32 M), homogenized with a dounce-homogenizer and centrifuged at 100×g to remove cells and debris. Supernatant was collected and centrifuged 17,000×g for 10 minutes at 4° C. to pellet the synaptosomes. The pellet was resuspended in fresh assay buffer.
Uptake assays were carried out in 96-well plates in a final volume of 250 μL per well. To each well was added 150 μL synaptosomes, 50 μL test, non-specific compound or buffer alone. The plate was incubated at 30° C. for 30 minutes with gentle agitation. 50 μL radiolabeled neurotransmitter in buffer was then added to each well to initiate the uptake. The plate was incubated at 30° C. for a further 5 minutes with gentle agitation. The incubation was stopped by vacuum filtration onto presoaked GF/C filters using a 96-well FilterMate™ harvester, followed by 3 washes with ice-cold wash buffer. Filters were then dried under a warm air stream, sealed in polyethylene, scintillation cocktail added, and the radioactivity counted in a Wallac® TriLux 1450 MicroBeta counter.
For each concentration of drug, non-specific uptake was subtracted from total uptake to give specific uptake. Data was fitted using the non-linear curve fitting routines in Prism® (Graphpad Software Inc) to determine IC50.

A further test addresses hKir2.1 (Homo sapiens (Human), UniProt P63252). It counts as cell-based. The note with it: Kir2.1, Antagonist mode, test compound. As for the experimental part:
Electrophysiological assays were conducted to profile three compounds ((R)-methylone, (S)-methylone, or racemic methylone) for activities on the ion channel targets specified below using the Qube electrophysiological platform. Where presented, IC50 values were determined by a non-linear, least squares regression analysis. Reference standards were run as an integral part of each assay to ensure the validity of the results obtained.
Ion Channels tested were Eurofins Panel Part Number: CPROFullQB2DR Voltage-Gated Sodium: HEK-Nav1.5 (Peak), HEK-Nav1.5 (Late, Antagonist) Voltage-Gated Potassium: HEK-Kv4.3/KChIP2, CHO-hERG, CHO-KCNQ1/minK Voltage-Gated Calcium: HEK-Cav1.2 Inward-Rectifying Voltage-Gated Potassium: HEK-Kir2.1.
hKir2.1 Potassium Channel Assay—Qube APC After whole cell configuration is achieved, the cells are held at −30 mV. Kir2.1 currents are evoked by a single 500 ms pulse to −120 mV before returning to the holding potential of −30 mV. This paradigm is delivered once every 20 s to monitor the current amplitude.

pIC50, pKi: −log10 of the molar value.

Sequence of hKir2.1 (P63252 whole entry): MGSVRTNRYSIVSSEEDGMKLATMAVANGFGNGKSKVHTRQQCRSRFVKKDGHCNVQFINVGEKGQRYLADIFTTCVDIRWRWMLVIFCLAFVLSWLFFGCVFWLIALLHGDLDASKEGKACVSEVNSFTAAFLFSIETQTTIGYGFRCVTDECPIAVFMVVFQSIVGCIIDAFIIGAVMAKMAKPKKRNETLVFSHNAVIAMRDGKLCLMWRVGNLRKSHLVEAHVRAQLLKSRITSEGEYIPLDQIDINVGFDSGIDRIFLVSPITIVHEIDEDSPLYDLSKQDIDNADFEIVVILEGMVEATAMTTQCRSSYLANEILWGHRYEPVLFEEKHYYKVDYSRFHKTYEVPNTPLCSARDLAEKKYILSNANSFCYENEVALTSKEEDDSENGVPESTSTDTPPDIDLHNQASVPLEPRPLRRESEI

For the compound `CN[C@H](C)C(=O)c1ccc2c(c1)OCO2` [(R)-methylone], in test [1], the pIC50 is 4.61 and the negative logarithm of the Ki (pKi) was 4.91. In test [1] (DAT binding), the “Potency relative to racemic methylone” value was “approximately three-fold less potent”. The same compound had a pIC50 against SERT of 5.12. Moreover, at hKir2.1, the “Estimated IC50” value is “N/C (N/C indicates observed mean inhibition was <25%)”.

In test [1], `CN[C@@H](C)C(=O)c1ccc2c(c1)OCO2` [(S)-methylone] had a pIC50 of 5.08 and a pKi of 5.38. On SERT, the pIC50 was 6.40. The “Estimated IC50” value at hKir2.1 was “N/C (N/C indicates observed mean inhibition was <25%)”.
